Data taken from patent US20030083237A1, “Anti-angiogenic peptides for cancer treatment” (priority 2001, published 2003).
Ends that are not written are not given here. Peptide text beside a SMILES is read from it.

System: BCE cells (Bovine Capillary Endothelial cells)
Type: cell-based
Details: for inhibiting the growth of BCE cells (in-vitro inhibition studies, FIG. 2): result in words
Experimental: The inhibition of said peptides on the endothelial cells was performed on BCE cells (Bovine Capillary Endothelial cells) as shown in Example 9. The inhibition of said peptide on the endothelial cells was performed on BCE cells (Folkman et al, Proceedings of the National Academy of Sciences USA. 76: 5217-5221 (1979)). The medium contains 90% DMEM (Dulbecco's Modified Eagle Medium), 10% FBS (fetal bovine serum), and 2 ng/mL of bFGF (basic fibroblast growth factor). A 24-well platelet was used for the growth of the BCE cells. To each well, 8,000-10,000 cells and 0.5 mL of the medium were added. The medium in each of the test wells was replaced by medium containing P1, P2, P3, P4, P5, P6, P7, or AK38 after 12 hours and continue to grow 5-7 days at 37° C. the BCE cells, in comparison to the control samples, to evaluate the inhibition on the growth of endothelial cells. The concentration inhibiting 50% of the cell growth is defined as IC50. […] (FIG. 6)

Compound	IC50 [nM]	inhibiting the growth of BCE cells (in-vitro inhibition studies, FIG. 2)
CC[C@H](C)[C@H](NC(=O)[C@H](CC(=O)O)NC(=O)CNC(=O)[C@H](CC(=O)O)NC(=O)[C@@H]1CCCN1C(=O)[C@H](CC(N)=O)NC(=O)[C@H](CCCNC(=N)N)NC(C)=O)C(=O)N[C@@H](CC(N)=O)C(=O)NCC(=O)N1CCC[C@H]1C(=O)N[C@@H](Cc1c[nH]c2ccccc12)C(N)=O [Peptide P4, Arg-Asn-Pro-Asp-Gly-Asp-Ile-Asn-Gly-Pro-Trp] (Ac-RNPDGDINGPW-NH2)	100	very effective
CSCC[C@H](NC(=O)[C@@H](NC(=O)[C@H](Cc1ccc(O)cc1)NC(C)=O)[C@@H](C)O)C(=O)N[C@@H](CC(N)=O)C(=O)N1CCC[C@H]1C(=O)N[C@@H](CCCNC(=N)N)C(=O)N[C@@H](CCCCN)C(=O)N[C@@H](CC(C)C)C(=O)N[C@@H](Cc1ccccc1)C(=O)N[C@@H](CC(=O)O)C(=O)N[C@@H](Cc1ccc(O)cc1)C(N)=O [Peptide P5, Tyr-Thr-Met-Asn-Pro-Arg-Lys-Leu-Phe-Asp-Tyr] (Ac-YTMNPRKLFDY-NH2)	45	very effective
ASSSFD [Peptide P7, protected form of peptide {7} of AK38 kringle]	–	none of the four peptides (P1, P2, P6, and P7) is significantly effective
Asp-Ile-Pro-Leu (DIPL; printed: Asp-Ile-Pro-Leu) [Peptide P6, protected form of peptide {6} of AK38 kringle]	–	none of the four peptides (P1, P2, P6, and P7) is significantly effective
IVPSLGPPSEQD [Peptide P1, protected form of peptide {1} of AK38 kringle]	–	none of the four peptides (P1, P2, P6, and P7) is significantly effective
MFGNGKGYRGKKATTVTGTP [Peptide P2, protected form of peptide {2} of AK38 kringle]	–	none of the four peptides (P1, P2, P6, and P7) is significantly effective
QQWAAQEPHRHSTFIPGTNKWAGLEKNY [Peptide P3, protected form of peptide {3} of AK38 kringle]	–	minor inhibition effect
